The supplement of paper PMC11061612

Assays:
Carboplatin = compound: C1CC(C1)(C(=O)[O-])C(=O)[O-].N.N.[Pt+2] [Carboplatin]; conditions: max 10 µM
Outline: (§1)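 Cancer cell lines were dosed for 72 hours (final DMSO typically 0.2%) after 24 hours at 37°C and 5% CO2 in 1536-well plates containing 7.5 μl DMEM/F12 or RPMI with 10% FBS. Viability came from CellTiter-Glo 2.0 luminescence, scaled between blank-well and DMSO-well means, and dose responses were fitted to a two-parameter logistic curve with a non-linear mixed effects model. The single-agent IC50 was obtained from this fit.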

AZD5363 = compound: C1CN(CCC1(C(=O)N[C@@H](CCO)C2=CC=C(C=C2)Cl)N)C3=NC=NC4=C3C=CN4 [AZD5363]; conditions: max 10 µM
Outline: as §1

AZD1775 = compound: C=CCn1c(=O)c2cnc(Nc3ccc(N4CCN(C)CC4)cc3)nc2n1-c1cccc(C(C)(C)O)n1 [AZD1775]; conditions: max 3 µM
Outline: as §1

Trametinib = compound: CC(=O)Nc1cccc(-n2c(=O)n(C3CC3)c(=O)c3c(Nc4ccc(I)cc4F)n(C)c(=O)c(C)c32)c1 [Trametinib]; conditions: max 1 µM
Outline: as §1

Paclitaxel = compound: CC(=O)O[C@H]1C(=O)[C@@]2(C)[C@H]([C@H](OC(=O)c3ccccc3)[C@]3(O)C[C@H](OC(=O)[C@H](O)[C@@H](NC(=O)c4ccccc4)c4ccccc4)C(C)=C1C3(C)C)[C@]1(OC(C)=O)CO[C@@H]1C[C@@H]2O [Paclitaxel]; conditions: max 3 µM
Outline: as §1

Palbociclib = compound: CC(=O)c1c(C)c2cnc(Nc3ccc(N4CCNCC4)cn3)nc2n(C2CCCC2)c1=O [Palbociclib]; conditions: max 10 µM
Outline: as §1

AZD1390 = compound: CC(C)n1c(=O)n(C)c2cnc3cc(F)c(-c4ccc(OCCCN5CCCCC5)nc4)cc3c21 [AZD1390]; conditions: max 0.3 µM
Outline: as §1

Venetoclax = compound: CC1(C)CCC(CN2CCN(c3ccc(C(=O)NS(=O)(=O)c4ccc(NCC5CCOCC5)c([N+](=O)[O-])c4)c(Oc4cnc5[nH]ccc5c4)c3)CC2)=C(c2ccc(Cl)cc2)C1 [Venetoclax]; conditions: max 1 µM
Outline: as §1

Dasatinib = compound: CC1=C(C(=CC=C1)Cl)NC(=O)C2=CN=C(S2)NC3=CC(=NC(=N3)C)N4CCN(CC4)CCO [Dasatinib]; conditions: max 2 µM
Outline: as §1

SG3199 = compound: CC1=CN2[C@@H](C1)C=NC3=CC(=C(C=C3C2=O)OC)OCCCCCOC4=C(C=C5C(=C4)N=C[C@@H]6CC(=CN6C5=O)C)OC [SG3199]; conditions: max 0.001 µM
Outline: as §1

AZD2811 = compound: CCN(CCO)CCCOc1ccc2c(Nc3cc(CC(=O)Nc4cccc(F)c4)[nH]n3)ncnc2c1 [AZD2811]; conditions: max 1 µM
Outline: as §1

SN-38 = compound: CCc1c2c(nc3ccc(O)cc13)-c1cc3c(c(=O)n1C2)COC(=O)[C@]3(O)CC [SN-38]; conditions: max 0.3 µM
Outline: as §1

AZD0156 = compound: CN(C)CCCOc1ccc(-c2ccc3ncc4c(c3c2)n(C2CCOCC2)c(=O)n4C)cn1 [AZD0156]; conditions: max 3 µM
Outline: as §1

AZD4320 = compound: CN(CC[C@H](CSC1=CC=CC=C1)NC2=C(C=C(C=C2)S(=O)(=O)NC(=O)C3=CC=C(C=C3)N4CCC(CC4)[C@H](C5=CC=CC=C5C6=CC=C(C=C6)Cl)O)S(=O)(=O)C(F)(F)F)CCO [AZD4320]; conditions: max 1 µM
Outline: as §1

Alisertib = compound: COc1cc(Nc2ncc3c(n2)-c2ccc(Cl)cc2C(c2c(F)cccc2OC)=NC3)ccc1C(=O)O [Alisertib]; conditions: max 10 µM
Outline: as §1

Etoposide = compound: COc1cc([C@@H]2c3cc4c(cc3[C@@H](O[C@@H]3O[C@@H]5CO[C@@H](C)O[C@H]5[C@H](O)[C@H]3O)[C@H]3COC(=O)[C@H]23)OCO4)cc(OC)c1O [Etoposide]; conditions: max 10 µM
Outline: as §1

Gefitinib = compound: COc1cc2ncnc(Nc3ccc(F)c(Cl)c3)c2cc1OCCCN1CCOCC1 [Gefitinib]; conditions: max 10 µM
Outline: as §1

Prexasertib = compound: COc1cccc(OCCCN)c1-c1cc(Nc2cnc(C#N)cn2)n[nH]1 [Prexasertib]; conditions: max 1 µM
Outline: as §1

Doxorubicin = compound: COc1cccc2c1C(=O)c1c(O)c3c(c(O)c1C2=O)C[C@@](O)(C(=O)CO)C[C@@H]3O[C@H]1C[C@H](N)[C@H](O)[C@H](C)O1 [Doxorubicin]; conditions: max 1 µM
Outline: as §1

AZD5153 = compound: COc1nnc2ccc(N3CCC(c4ccc(OCCN5CCN(C)C(=O)[C@H]5C)cc4)CC3)nn12 [AZD5153]; conditions: max 1 µM
Outline: as §1

Lapatinib = compound: CS(=O)(=O)CCNCc1ccc(-c2ccc3ncnc(Nc4ccc(OCc5cccc(F)c5)c(Cl)c4)c3c2)o1 [Lapatinib]; conditions: max 10 µM
Outline: as §1

AZD8186 = compound: C[C@@H](Nc1cc(F)cc(F)c1)c1cc(C(=O)N(C)C)cc2c(=O)cc(N3CCOCC3)oc12 [AZD8186]
Outline: as §1

Crizotinib = compound: C[C@@H](Oc1cc(-c2cnn(C3CCNCC3)c2)cnc1N)c1c(Cl)ccc(F)c1Cl [Crizotinib]; conditions: max 10 µM
Outline: as §1

Savolitinib = compound: C[C@@H](c1ccc2nccn2c1)n1nnc2ncc(-c3cnn(C)c3)nc21 [Savolitinib]; conditions: max 1 µM
Outline: as §1

AZD6738 = compound: C[C@@H]1COCCN1C2=NC(=NC(=C2)C3(CC3)[S@](=N)(=O)C)C4=C5C=CNC5=NC=C4 [AZD6738]; conditions: max 10 µM
Outline: as §1

AZD5991 = compound: Cc1c2c(nn1C)CSCc1cc(n(C)n1)CSc1cc(c3ccccc3c1)OCCCc1c(C(=O)O)n(C)c3c-2c(Cl)ccc13 [AZD5991]; conditions: max 1 µM
Outline: as §1

AZD7648 = compound: Cc1cc2ncnn2cc1Nc1ncc2c(n1)n(C1CCOCC1)c(=O)n2C [AZD7648]; conditions: max 10 µM
Outline: as §1

Taselisib = compound: Cc1nc(-c2cn3c(n2)-c2ccc(-c4cnn(C(C)(C)C(N)=O)c4)cc2OCC3)n(C(C)C)n1 [Taselisib]; conditions: max 10 µM
Outline: as §1

Selumetinib = compound: Cn1cnc2c(F)c(Nc3ccc(Br)cc3Cl)c(C(=O)NOCCO)cc21 [Selumetinib]; conditions: max 10 µM
Outline: as §1

SRA737 = compound: N#Cc1cnc(Nc2cc(NC[C@H]3CNCCO3)c(C(F)(F)F)cn2)cn1 [SRA737]; conditions: max 10 µM
Outline: as §1

MK-2206 = compound: NC1(c2ccc(-c3nc4ccn5c(=O)[nH]nc5c4cc3-c3ccccc3)cc2)CCC1 [MK-2206]; conditions: max 10 µM
Outline: as §1

[1] = compound: O=C(Nc1ccc2[nH]nc(-c3ccncc3)c2c1)[C@@H]1CCN(CC(=O)N2CCN(c3ccc(-c4ncccn4)cc3)CC2)C1; conditions: max 5 µM
Outline: as §1

Olaparib = compound: O=C(c1cc(Cc2n[nH]c(=O)c3ccccc23)ccc1F)N1CCN(C(=O)C2CC2)CC1 [Olaparib]; conditions: max 10 µM
Outline: as §1

5-Fluorouracil = compound: O=c1[nH]cc(F)c(=O)[nH]1 [5-Fluorouracil]; conditions: max 20 µM
Outline: as §1

Gemcitabine = compound: Nc1ccn([C@@H]2O[C@H](CO)[C@@H](O)C2(F)F)c(=O)n1 [Gemcitabine]; conditions: max 0.3 µM
Outline: as §1

Capivasertib = compound: C1CN(CCC1(C(=O)N[C@@H](CCO)C2=CC=C(C=C2)Cl)N)C3=NC=NC4=C3C=CN4 [Capivasertib]; conditions: max 10 µM
Outline: as §1

Row | Cell Line | IC50, cell viability 72 h (Carboplatin) [nM] | IC50, cell viability 72 h (AZD5363) [nM] | IC50, cell viability 72 h (AZD1775) [nM] | IC50, cell viability 72 h (Trametinib) [nM] | IC50, cell viability 72 h (Paclitaxel) [nM] | IC50, cell viability 72 h (Palbociclib) [nM] | IC50, cell viability 72 h (AZD1390) [nM] | IC50, cell viability 72 h (Venetoclax) [nM] | IC50, cell viability 72 h (Dasatinib) [nM] | IC50, cell viability 72 h (SG3199) [nM] | IC50, cell viability 72 h (AZD2811) [nM] | IC50, cell viability 72 h (SN-38) [nM] | IC50, cell viability 72 h (AZD0156) [nM] | IC50, cell viability 72 h (AZD4320) [nM] | IC50, cell viability 72 h (Alisertib) [nM] | IC50, cell viability 72 h (Etoposide) [nM] | IC50, cell viability 72 h (Gefitinib) [nM] | IC50, cell viability 72 h (Prexasertib) [nM] | IC50, cell viability 72 h (Doxorubicin) [nM] | IC50, cell viability 72 h (AZD5153) [nM] | IC50, cell viability 72 h (Lapatinib) [nM] | IC50, cell viability 72 h (AZD8186; max 10 µM) [nM] | IC50, cell viability 72 h (Crizotinib) [nM] | IC50, cell viability 72 h (Savolitinib) [nM] | IC50, cell viability 72 h (AZD6738) [nM] | IC50, cell viability 72 h (AZD5991) [nM] | IC50, cell viability 72 h (AZD7648) [nM] | IC50, cell viability 72 h (Taselisib) [nM] | IC50, cell viability 72 h (Selumetinib) [nM] | IC50, cell viability 72 h (SRA737) [nM] | IC50, cell viability 72 h (MK-2206) [nM] | IC50, cell viability 72 h [1] [nM] | IC50, cell viability 72 h (Olaparib) [nM] | IC50, cell viability 72 h (5-Fluorouracil) [nM] | IC50, cell viability 72 h (Gemcitabine) [nM] | IC50, cell viability 72 h (Capivasertib) [nM] | IC50, cell viability 72 h (AZD8186; max 3 µM) [nM]
1 | KP-3 (Pancreatic Carcinoma) | > 10000 | > 10000 | > 3000 | > 1000 | > 3000 | > 10000 | > 300 | > 1000 | > 2000 | > 1 | > 1000 | > 300 | > 3000 | > 1000 | > 10000 | > 10000 | > 10000 | > 1000 | > 1000 | > 1000 | > 10000 | > 10000 | > 10000 | > 1000 | > 10000 | > 1000 | > 10000 | > 10000 | > 10000 | > 10000 | > 10000 | > 5000 | > 10000 | > 20000 |  |  | 
2 | KU812 (Chronic Myelogenous Leukemia) | > 10000 | > 10000 | 298 | 10.5 | 17.6 | 4050 | > 300 | > 1000 | < 2 | > 1 | 471 | 37.4 | > 3000 | 267 | 701 | 9690 | > 10000 | 20.5 | 567 | 36.6 | > 10000 | > 10000 | 260 | > 1000 | 2150 | 235 | > 10000 | > 10000 | 260 | 9860 | 4070 | 160 | > 10000 | > 20000 | 27.1 |  | 
3 | KY821 (Acute Myeloid Leukemia) |  |  | 212 | 5.35 |  | 610 | > 300 | 9.8 | > 2000 | > 1 | > 1000 | 8.99 | > 3000 | 4.53 | 28.6 |  | > 10000 | 8.46 | 272 | 22.1 | > 10000 |  | 4630 | > 1000 | 3070 | 13.2 | > 10000 | 90.7 | 623 |  | > 10000 |  | > 10000 |  |  | > 10000 | 2700
4 | OCI-AML3 (Acute Myeloid Leukemia) | > 10000 | > 10000 | 615 | 2.98 | 4.57 | 5340 | > 300 | > 1000 | > 2000 |  | 324 | 10.1 | > 3000 | > 1000 |  | 1270 | > 10000 |  |  | 25.6 | > 10000 | > 10000 | 6530 | > 1000 | 1810 | 250 | > 10000 | 1440 | 91.9 | 5320 | > 10000 | 156 | > 10000 | 3070 | 5.04 |  | 
5 | SU-DHL-5 (B-Cell Non-Hodgkin's Lymphoma) |  |  | 363 | 1000 |  | 559 | > 300 | > 1000 | 10.8 | > 1 | 9.84 | 1.38 | > 3000 | > 1000 | 359 |  | > 10000 | 4.89 | 13 | 42.3 | 6610 |  | 1650 | > 1000 | 457 | 8.62 | 6580 | 48.6 | > 10000 |  |  |  | 3380 |  |  | 305 | 160
6 | SUP-B15 (B-Lymphoblastic Leukemia) |  |  | 692 | 627 |  | > 10000 | > 300 | 3.48 | 10.5 | > 1 | 34 | 2.7 | > 3000 | 2.13 | 38.4 |  | > 10000 | 21.7 | 369 | 98 | > 10000 |  | 1380 | > 1000 | 2110 | 38.9 | > 10000 | > 10000 | > 10000 |  |  |  | 2020 |  |  | 8510 | > 3000
